Like-named read-outs stand apart in the source and are kept apart here.
Columns and labels:
[1] = tested on: H110D aminopeptidase A-like activity; assay: Inhibitor sensitivity of ConA H110D, α-glutamic acid-pNA substrate; assay type: biochemical, Haemonchus contortus
Description: (§1) α-amino acylpeptide hydrolase (microsomal) aminopeptidase activities in H110D preparations were characterised by assays, in solution, using L-leucine, methionine, phenylalanine, α-glutamic acid and lysine p-nitroanilides (pNA). All the amino acid p-nitroanilide substrates (except α-glutamic acid) were obtained from Sigma, Poole, Dorset UK, α-glutamic acid was from Fluka, Dorset, UK. Single hydrophobic (leucine- or phenylalanine-) and charged (α-glutamic acid-) amino acid pNA known to be substrates for mammalian aminopeptidase-M (ApM) and -A (ApA) respectively, were chosen to measure the effect of enzyme inhibitors and serum inhibition on H110D aminopeptidase activities.
(§2) Micro-ELISA plate (Dynatech Immulon 1, Virginia, USA) wells were each filled with 250 μl of either 50 mM HEPES or MOPS pH 7 plus 1-10 μl of the fraction to be assayed. The plates were then pre-incubated at 37° C. for 10 minutes prior to the addition of 10 μl of 25 mM amino acid p-nitroanilide substrate per well. The time zero optical density (OD) at 405 nm was then measured using an ELISA plate reader and the plates were then incubated at 37° C. for 15-30 minutes. The final OD reading was then taken as before and the OD change per minute per milligram of protein calculated.
(§3) The method used for the enzyme assay was as described in (a) above except that the inhibitors were added to the 250 μl of buffer plus 10 μl of 1 mg/ml ConA H110D and pre-incubated for 10 minutes at 37° C. prior to addition of the substrates (leucine-pNA or α-glutamic acid-pNA). The percentage inhibition was calculated as follows [formula]
(§4) Where x=the ΔOD/min of the enzyme with no inhibitor added and y=ΔOD/min of the enzyme plus inhibitor. Nine compounds with differing enzyme class inhibition were tested individually: Amastatin, Bestatin (metalloprotease, aminopeptidase), 1,10 phenanthroline, EDTA (metalloprotease), phosphoramidon (metalloprotease, thermolysin, collagenase), Aproptinin (serine protease), Pepstatin (aspartic protease), PMSF (serine and cysteine protease) and E64 (cysteine protease). Amastatin, bestatin, 1,10 phenanthroline, PMSF and pepstatin were obtained from Sigma, Dorset, UK. All the other inhibitors were obtained from Boehringer-Mannheim. Each inhibitor was used at two concentrations equal to or greater than the maximum concentrations recommended by Boehringer-Mannheim.

[2] = tested on: H110D aminopeptidase M-like activity; assay type: biochemical, Haemonchus contortus
Description: as §1, §2, §3
as §4, with “Boehringer-Mannheim.” for “Boehringer-Mannheim. Each inhibitor was used at two concentrations equal to or greater than the maximum concentrations recommended by Boehringer-Mannheim.”

Compound | PERCENTAGE INHIBITION α-glutamic acid-p-nitroanilide substrate ([1]; inhibitor 1 mM) | PERCENTAGE INHIBITION α-glutamic acid-p-nitroanilide substrate ([1]; inhibitor 10 mM) | PERCENTAGE INHIBITION Leucine-p-nitroanilide substrate ([2]; inhibitor 1 mM, ConA H110D) | PERCENTAGE INHIBITION Leucine-p-nitroanilide substrate ([2]; inhibitor 10 mM, ConA H110D) | Ranking of inhibitors of H110D aminopeptidase activities ([2]; 5 mM) | PERCENTAGE INHIBITION α-glutamic acid-p-nitroanilide substrate ([1]; inhibitor 10 μM) | PERCENTAGE INHIBITION α-glutamic acid-p-nitroanilide substrate ([1]; inhibitor 50 μM) | PERCENTAGE INHIBITION Leucine-p-nitroanilide substrate ([2]; inhibitor 10 μM, ConA H110D) | PERCENTAGE INHIBITION Leucine-p-nitroanilide substrate ([2]; inhibitor 50 μM, ConA H110D) | PERCENTAGE INHIBITION α-glutamic acid-p-nitroanilide substrate ([1]; inhibitor 100 μM) | Reduction of activity against leucine-p-nitroanilide ([2]; ConA H110D, concentration recommended by the supplier) | PERCENTAGE INHIBITION Leucine-p-nitroanilide substrate ([2]; inhibitor 100 μM, ConA H110D)
O=C(O)CN(CCN(CC(=O)O)CC(=O)O)CC(=O)O [EDTA, ethylenediaminetetraacetic acid] | 17% | 21% | 8% | 16% |  |  |  |  |  |  |  | 
c1cnc2c(c1)ccc1cccnc12 [1, 10 phenanthroline, 1,10 phenanthroline] | 78% | 85% | 78% | 87% | most effective inhibitor |  |  |  |  |  |  | 
CC(C)C[C@@H](N)[C@H](O)C(=O)N[C@H](C(=O)N[C@H](C(=O)N[C@@H](CC(=O)O)C(=O)O)C(C)C)C(C)C [Amastatin] |  |  |  |  |  | 0% | 0% | 61% | 66% |  |  | 
CC(C)C[C@H](NP(=O)(O)O[C@@H]1O[C@@H](C)[C@H](O)[C@@H](O)[C@H]1O)C(=O)N[C@@H](Cc1c[nH]c2ccccc12)C(=O)O [Phosphoramidon, phosphoramidon] |  |  |  |  |  | 1% | 1% | 0.8% | 7% |  |  | 
CC(C)C[C@H](NC(=O)[C@@H](O)[C@H](N)Cc1ccccc1)C(=O)O [Bestatin] |  |  |  |  |  |  | 23% |  | 63% | 35% | approximately 70% | 68%

Source: patent publication US6534638B1, “Recombinant DNA molecules encoding aminopeptidase enzymes and their use in the preparation of vaccines against helminth infections” (priority 1992, dated 2003)
